Structures are written as SMILES. Structures can show the parent of a compound that is named as a salt.

The nature of series [1]: Aerosol particle size distribution by laser diffraction. Format: physicochemical. The note with it: solutions in WFI 60-140 mg/ml, fill 2-4 ml.
Description: Droplet size distributions for aerosolized drug and placebo solutions were measured using the Sympatec HELOS laser diffraction spectrometer. In preparation for a run, the nebulizer was connected to the compressed air line, the flow turned on and the pressure regulator set to a driving pressure to generate a flow rate of 8 LPM through the nebulizer. The flow was then turned off by closing the flow shut-off valve. Next, the nebulizer was connected to a “T” piece with one port plugged, and the other port coupled to a mouthpiece. The nebulizer was then filled with drug solution, and mounted so that nebulizer mouthpiece was aligned parallel to the nozzle of the Rodos dry powder disperser apparatus already installed in the spectrometer. The laser diffraction system was setup to automatically trigger when it sensed the presence of the aerosol generated by the nebulizer. Measurements were initiated by opening the shut-off valve to pressurize the nebulizer and generate the aerosol. A total of 6 particle size distribution scans were taken for each nebulizer run, and then averaged to provide representative size distribution results.
In series [2] the test system is CD rats. Nature of the series: 14-consecutive day nose-only inhalation toxicity and recovery. Format: in vivo, rat. On the procedure: The solution was used to generate aerosolized vancomycin for all vancomycin exposure groups.
Nose-only exposures were conducted in a “flow-past” cylindrical inhalation chamber placed inside a steel-framed Plexiglas secondary containment box. The chamber contained 48 animal ports, each compatible with a single nose-only exposure tube, aerosol concentration sampling device (e.g., filter), or oxygen monitor.
The total air flow through the exposure system was balanced to achieve individual animal port flows of ˜500 mL/min (port flow approximated based on total chamber flow). Measured flows included sample flow rate, nebulizer flow rate, dilution flow rate (chamber make-up air), and chamber exhaust flow.
Vancomycin solution was aerosolized with two Aerotech II nebulizers operated at 20 psi driving pressure. The target aerosol Vancomycin concentration for all exposure levels was ˜1.0 mg/L.
Aerosolized vancomycin was administered to 3 groups of male and female CD rats (available from Charles River Laboratories, Kingston, N.Y.) for durations of 30 min (Low), 90 min (Mid), and 180 min (High). A control group was exposed for 180 min to aerosols generated from a normal saline solution. Groups of rats from the Control and High level 14-day exposures were also studied following a 14-day recovery period. Endpoints included clinical observations, body weights, clinical pathology (hematology, clinical chemistry), urinalyses, organ weights, and histopathology.

Series [3] concerns beagle dogs. Nature of the series: 14-consecutive day face mask inhalation toxicity and recovery. It is filed as in vivo, dog. On the procedure:
Within 2 hours prior to usage, a vancomycin nebulizer solution having a concentration of 120 mg/ml was formed by dissolving vancomycin hydrochloride (available from Alpharma, Copenhagen, Denmark) in sterile water for injection USP (available from B. Braun Medical Inc., Bethlehem, Pa.). The solution was used to generate aerosolized vancomycin for all vancomycin exposure groups.
The exposure system consisted of a single, cylindrical, plexiglass inhalation chamber (volume of ˜23.7 L, 14.61-cm radius, 35.56-cm height). The chamber was supplied with two Aerotech II nebulizers operated at ˜40 psi. Nebulized test article and nebulizer air supply was diluted with ˜10 L/min HEPA-filtered dilution air. The flow through the system was ˜36 L/min.
The aerosolized vancomycin was administered via a face mask to 3 groups of male and female beagle dogs for durations of 15 min (Low), 30 min (Mid), and 60 min (High). A control group was exposed for 60 min to aerosols generated from normal saline solution, i.e., 0.9% sodium chloride injection USP (available from B. Braun Medical Inc.).
Groups of dogs from the Control and High level 14-day exposures were also studied following a 14-day recovery period. Endpoints for all groups of dogs included physical examinations, clinical observations, body weights, ophthalmology, cardiovascular EKG, clinical pathology (hematology, clinical chemistry), urinalyses, organ weights, histopathology, and toxicokinetics.

On to `CN[C@H](CC(C)C)C(=O)N[C@H]1C(=O)N[C@@H](CC(N)=O)C(=O)N[C@H]2C(=O)N[C@H]3C(=O)N[C@H](C(=O)N[C@H](C(=O)O)c4cc(O)cc(O)c4-c4cc3ccc4O)[C@H](O)c3ccc(c(Cl)c3)Oc3cc2cc(c3O[C@@H]2O[C@H](CO)[C@@H](O)[C@H](O)[C@H]2O[C@H]2C[C@](C)(N)[C@H](O)[C@H](C)O2)Oc2ccc(cc2Cl)[C@H]1O` [Vancomycin HCl, vancomycin hydrochloride], for which the “volume weighted median size of aerosol” value in series [1] is 2-3 μm. The “mass median aerodynamic diameter of exposure aerosol” value is 2.0-2.6 μm in series [2] (120 mg/ml solution, Aerotech II nebulizers, 20 psi) and 1.9-2.6 μm in series [3] (120 mg/ml solution, Aerotech II nebulizers, ~40 psi). In addition, the “no observed effect level” value in series [2] (rat, 14-day inhalation) was “not established”. The “serum indicators of kidney function or urinalysis” value in series [2] (rat, 14-day inhalation) is recorded as “No vancomycin related changes”. Besides, the lung weight increase is given as ~19 % of control in series [2] (rat, High exposure level (180 min), 14 days); “approximately 8 % of control” in series [2] (rat, Low exposure level (30 min), 14 days); ~20 % of control in series [2] (rat, Mid exposure level (90 min), 14 days). In addition, in series [2] (rat, High level, 14 days of recovery), the “histopathologic findings after recovery” value was “substantial diminution of these findings”. Moreover, the “neutrophils (hematology)” value in series [2] (rat, Mid and High exposure levels) was “statistically significant increase”. In series [2] (rat, end of 14-day exposure), the “exposure related histopathologic findings” value was “limited to the respiratory tract”. Further, the tolerability entry was “well-tolerated by all groups of rats” in series [2] (rat, inhalation 30, 90, 180 min/day, 14 days) and “well-tolerated by all groups of dogs” in series [3] (dog, face mask 15, 30, 60 min/day, 14 days). Besides, the body weight entry in series [2] (rat, inhalation 14 days) was “no vancomycin treatment related effects”. The clinical observations result in series [2] (rat, inhalation 14 days) is given as “no vancomycin related effects”. For the same compound, the survival result in series [2] (rat, inhalation 14 days, all groups) is listed as “All rats survived to scheduled necropsy”; in series [3] (dog, 14 days, all groups), “All dogs survived to scheduled necropsy”. In addition, the “physical examinations, clinical observations, ophthalmology, ECG, hematology, clinical chemistry, urinalyses, gross necropsy, organ weights” value in series [3] (dog, 14-day inhalation) is recorded as “no vancomycin related effects”. Also, the “recovery of histopathological effects” value in series [3] (dog, High level, 14-day recovery) is given as “complete after 14 days”. Moreover, the histopathology entry in series [3] (dog, end of 14-day exposure) is “limited to microscopic findings in the lung”.

The values above are taken from patent US9351929B2, “Antibiotic formulations, unit doses, kits, and methods” (Bayer Intellectual Property GMBH, priority 2005, dated 2016).
